# Measured values from patent US5468767A, “Antidepressant 3-(aminocycloalkenyl)-indole-5-nitrile derivatives” (Bristol-Myers Squibb Company, priority 1994, dated 1995).
# pIC50: −log10 of the molar value.
# Tested on: synaptosomal re-uptake of tritiated serotonin
# Test: In vitro inhibition of synaptosomal re-uptake of tritiated serotonin (5-HT uptake inhibition)
# Assay type: biochemical
# Procedure: Determination of endogenous monoaminergic re-uptake inhibition values both for serotonin and norepinephrine was accomplished using test methods described by P. Skolnick, et al., Br. J. Pharmacology, (1985), 86, pp. 637-644; with only minor modifications. In vitro IC50 (nM) test values were determined for representative compounds of Formula I based on their inhibition of synaptosomal re-uptake of tritiated serotonin. Test data IC50 values lower than 500 nM are considered to reflect activity as an inhibitor of serotonin re-uptake.
# In vitro IC50 (nM) test values below 100 nM are designated with ** and those below 10 nM with ***.
row,SMILES,pIC50
1,CCN(CC)C1CC=C(c2c[nH]c3ccc(C#N)cc23)CC1 (stereo not drawn) [Example 24],> 7.00
2,N#Cc1ccc2[nH]cc(C3=CCC(NCCc4ccc(F)cc4)CC3)c2c1 (stereo not drawn) [Example 33],> 8.00
3,CC(C)NC1CC=C(c2c[nH]c3ccc(C#N)cc23)CC1 (stereo not drawn) [Example 26],> 7.00
4,CCNC1CC=C(c2c[nH]c3ccc(C#N)cc23)CC1 (stereo not drawn) [Example 41],> 7.00
5,CN(C)C1CC=C(c2c[nH]c3ccc(C#N)cc23)CC1 (stereo not drawn) [Example 23],> 8.00
6,N#Cc1ccc2[nH]cc(C3=CCC(NCCCCc4ccccc4)CC3)c2c1 (stereo not drawn) [Example 40],> 8.00
7,N#Cc1ccc2[nH]cc(C3=CCC(NCCCc4ccccc4)CC3)c2c1 (stereo not drawn) [Example 38],> 8.00
8,"N#CCc1ccc2[nH]cc(C3=CCC(NCCc4ccccc4)CC3)c2c1 (stereo not drawn) [Example 31, 3-[[4-(2-Phenylethyl)amino]-1-cyclohexen-1-yl]-1H-indole-5-acetonitrile]",> 7.00
9,N#Cc1ccc2[nH]cc(C3=CCC(NCCc4cccc(F)c4)CC3)c2c1 (stereo not drawn) [Example 30],> 8.00
10,N#Cc1ccc2[nH]cc(C3=CCC(NCCc4ccccc4)CC3)c2c1 (stereo not drawn) [Example 28],> 8.00
11,CN(CCc1ccccc1)C1CC=C(c2c[nH]c3ccc(C#N)cc23)CC1 (stereo not drawn) [Example 29],> 8.00
12,COc1ccc(CCNC2CC=C(c3c[nH]c4ccc(C#N)cc34)CC2)cc1 (stereo not drawn) [Example 36],> 8.00
13,COc1ccccc1CCNC1CC=C(c2c[nH]c3ccc(C#N)cc23)CC1 (stereo not drawn) [Example 34],> 8.00
14,N#Cc1ccc2[nH]cc(C3=CCC(NCc4ccccc4)CC3)c2c1 (stereo not drawn) [Example 27],> 8.00
15,N#Cc1ccc2[nH]cc(C3=CCC(NCCc4cccnc4)CC3)c2c1 (stereo not drawn) [Example 37],> 8.00
16,N#Cc1ccc2[nH]cc(C3=CCC(NCCc4ccccc4F)CC3)c2c1 (stereo not drawn) [Example 32],> 8.00
17,N#Cc1ccc2[nH]cc(C3=CCC(NCC4COc5ccccc5O4)CC3)c2c1 (stereo not drawn) [Example 39],> 8.00
18,COc1cccc(CCNC2CC=C(c3c[nH]c4ccc(C#N)cc34)CC2)c1 (stereo not drawn) [Example 35],> 8.00
